Results from paper PMC6225212, “Synthesis and Pharmacological Evaluation of Novel Silodosin-Based Arylsulfonamide Derivatives as α1A/α1D-Adrenergic Receptor Antagonist with Potential Uroselective Profile” (Molecules : A Journal of Synthetic Chemistry and Natural …, 2018).
Read-outs that look alike come from different tables or passages of the source.

Assays:
α1-ARs [1] = test: Radioligand binding, displacement of [3H]-Prazosin from α1-ARs on rat cerebral cortex; settings: for Sα2/α1 (ratio of affinity for α2- and α1-ARs): Ki α2 / Ki α1; for Ki: [3H]-Prazosin, rat cerebral cortex, ± SEM, two independent experiments
Description: (§1) The pharmacological profile of the new compounds was assessed in radioligand-binding assays as the ability to displace [^3H]-Prazosin or [^3H]-Clonidine from α1- and α2-ARs, respectively, on rat cerebral cortex. The inhibition constants (Ki) were calculated from the Cheng-Prusoff equation [24].
(§2) The affinity of the obtained compounds was evaluated by radioligand-binding assays (the ability to displace [^3H]-Prazosin and [^3H]-Clonidine from α1- and α2-ARs, respectively) on rat cerebral cortex. The brains are homogenized in 20 volumes of an ice-cold 50 mM Tris-HCl buffer (pH 7.6) and is centrifuged (MPW Med. Instruments, Warsaw, Poland) at 20,000 g for 20 min (0–4 °C). The cell pellet is resuspended in the Tris-HCl buffer and centrifuged again. Radioligand-binding assays are performed in plates (MultiScreen/Millipore, Burlington, MA, USA). The final incubation mixture (final volume 300 µL) consisted of 240 µL of the membrane suspension, 30 µL of [^3H]-Prazosin (0.2 nM) or [^3H]-Clonidine (2 nM) solution, and 30 µL of the buffer containing seven to eight concentrations (10^−11 to 10^−4 M) of the tested compounds. For measuring the unspecific binding, phentolamine, 10 µM (in the case of [^3H]-Prazosin) and clonidine, and 10 µM (in the case of [^3H]-Clonidine), were applied. The incubation was terminated by rapid filtration over glass fiber filters (Whatman GF/C, Sigma-Aldrich) using a vacuum manifold (Millipore). The filters were then washed twice with the assay buffer and placed in scintillation vials with a liquid-scintillation cocktail. Radioactivity was measured in a WALLAC 1409 DSA liquid-scintillation counter (BioSurplus, San Diego, CA, USA). All the assays were made in duplicate.

α2-ARs [2] = test: Radioligand binding, displacement of [3H]-Clonidine from α2-ARs on rat cerebral cortex; settings: ± SEM, two independent experiments
Description: as §1, §2

α1A-ARs = biological target: T1, α1A-ARs (Homo sapiens, UniProt P35348); test: Intrinsic activity at α1A-ARs, β-lactamase reporter gene, FRET substrate; type: cell-based; set-up: key to α1A Profile: ANT—antagonist; AGO—agonist; settings: for IC50: antagonist mode, three independent experiments; for α1A Profile: functional profile
T1 sequence (P35348 1-466): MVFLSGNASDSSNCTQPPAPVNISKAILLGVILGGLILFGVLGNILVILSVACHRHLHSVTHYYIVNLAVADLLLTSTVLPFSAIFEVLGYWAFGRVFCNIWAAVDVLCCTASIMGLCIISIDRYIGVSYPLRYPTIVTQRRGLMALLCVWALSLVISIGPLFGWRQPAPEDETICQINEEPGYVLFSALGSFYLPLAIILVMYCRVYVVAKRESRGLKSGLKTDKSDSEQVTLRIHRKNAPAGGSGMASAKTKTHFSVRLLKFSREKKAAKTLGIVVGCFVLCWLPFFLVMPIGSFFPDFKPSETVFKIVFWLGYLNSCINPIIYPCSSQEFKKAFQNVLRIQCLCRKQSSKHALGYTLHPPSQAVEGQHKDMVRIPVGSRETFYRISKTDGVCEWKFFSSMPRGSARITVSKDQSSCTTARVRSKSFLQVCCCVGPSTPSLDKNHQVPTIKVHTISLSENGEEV
Description: The intrinsic activity at α1A-ARs of the selected compounds was assessed by fluorescence detection (Invitrogen, Thermo Fisher Scientific, Carlsbad, CA, USA) of β-lactamase reporter genes using a FRET-enabled substrate. […] Intrinsic activity assay was performed according to the manufacturer of the assay kit (Invitrogen, Thermo Fisher Scientific corporation, Carlsbad, CA, USA). The cells were harvested and suspended in Assay Medium to a density of 312,500 cells/mL. Of the cell suspension, 32 µL per well was added to the Test Compound wells, the Unstimulated Control wells, and Stimulated Control wells and incubated per 16–24 h. […] Then, both the agonist and the antagonist plate were incubated in a humidified 37 °C/5% CO2 incubator for 5 h. After the incubation 8 µL of LiveBLAzer™-FRET B/G Substrate Mixture (CCF4-AM, Thermo Fisher Scientific corporation) was loaded cells in the absence of direct strong lighting, covered, and incubated at room temperature for 2 h.

α1B-ARs = biological target: T2, α1B-ARs (Homo sapiens, UniProt P35368); test: Intrinsic activity at α1B-ARs, aequorin calcium mobilization luminescence; type: cell-based; set-up: key to α1B Profile: ANT—antagonist; AGO—agonist; settings: for IC50: antagonist mode, three independent experiments; for α1B Profile: functional profile
T2 sequence (P35368 1-520): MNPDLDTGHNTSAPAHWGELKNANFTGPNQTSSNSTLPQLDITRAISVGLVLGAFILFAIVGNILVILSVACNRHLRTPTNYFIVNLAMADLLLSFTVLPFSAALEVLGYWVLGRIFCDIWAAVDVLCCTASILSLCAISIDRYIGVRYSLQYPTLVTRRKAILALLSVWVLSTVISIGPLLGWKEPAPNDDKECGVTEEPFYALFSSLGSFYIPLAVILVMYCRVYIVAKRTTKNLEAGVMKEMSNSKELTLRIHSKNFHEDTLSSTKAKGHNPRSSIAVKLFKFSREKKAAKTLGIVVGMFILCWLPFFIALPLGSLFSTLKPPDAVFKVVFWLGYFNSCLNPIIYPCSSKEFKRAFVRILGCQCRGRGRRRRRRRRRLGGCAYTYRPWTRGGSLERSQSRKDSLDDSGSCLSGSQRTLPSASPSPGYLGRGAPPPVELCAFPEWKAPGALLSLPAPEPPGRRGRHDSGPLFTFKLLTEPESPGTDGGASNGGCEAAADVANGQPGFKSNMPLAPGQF
Description: (§3) The intrinsic activity at α1A-ARs of the selected compounds was assessed by fluorescence detection (Invitrogen, Thermo Fisher Scientific, Carlsbad, CA, USA) of β-lactamase reporter genes using a FRET-enabled substrate. The intrinsic activity at α1B-ARs and α1D-ARs was determined by luminescence detection (PerkinElmer, Zaventem, Belgium) of calcium mobilization using the recombinant-expressed jellyfish photoprotein (Aequorin).
(§4) Intrinsic activity assay to α1B- and α1D-ARs was performed according to the manufacturer of the ready-to-use cells with stable expression of the α1B-adrenoreceptors and α1D-adrenoreceptors, respectively (PerkinElmer, Zaventem, Belgium). For measurement, cells (frozen, ready to use) were thawed and resuspended in 10 mL of assay buffer containing 5 µM coelenterazine h. This cells suspension was put in a 10 mL Falcon tube, fixed onto a rotating heel, and incubated for overnight at rt in the dark (8 rpm; 45° angle). Cells were diluted with Assay Buffer to 5000 cells/20 µL. Agonistic ligands 2 × (50 µL/well), diluted in Assay Buffer, were prepared in ½ white polystyrene area plates, and the cell suspension was dispensed in 50 µL volume on the ligands using the injector. The light emitted was recorded for 20 s. Cells with antagonist were incubated for 15 min at room temperature. Thereafter, 50 µL of agonist (3 × EC80 final concentration) was injected into the mix of cells and antagonist and the light emitted was recorded for 20 s.

α1D-ARs = biological target: T3, α1D-ARs (Homo sapiens, UniProt P25100); test: Intrinsic activity at α1D-ARs, aequorin calcium mobilization luminescence; type: cell-based; set-up: key to α1D Profile: ANT—antagonist; AGO—agonist; settings: for IC50: antagonist mode; for α1D Profile: functional profile
T3 sequence (P25100 1-572): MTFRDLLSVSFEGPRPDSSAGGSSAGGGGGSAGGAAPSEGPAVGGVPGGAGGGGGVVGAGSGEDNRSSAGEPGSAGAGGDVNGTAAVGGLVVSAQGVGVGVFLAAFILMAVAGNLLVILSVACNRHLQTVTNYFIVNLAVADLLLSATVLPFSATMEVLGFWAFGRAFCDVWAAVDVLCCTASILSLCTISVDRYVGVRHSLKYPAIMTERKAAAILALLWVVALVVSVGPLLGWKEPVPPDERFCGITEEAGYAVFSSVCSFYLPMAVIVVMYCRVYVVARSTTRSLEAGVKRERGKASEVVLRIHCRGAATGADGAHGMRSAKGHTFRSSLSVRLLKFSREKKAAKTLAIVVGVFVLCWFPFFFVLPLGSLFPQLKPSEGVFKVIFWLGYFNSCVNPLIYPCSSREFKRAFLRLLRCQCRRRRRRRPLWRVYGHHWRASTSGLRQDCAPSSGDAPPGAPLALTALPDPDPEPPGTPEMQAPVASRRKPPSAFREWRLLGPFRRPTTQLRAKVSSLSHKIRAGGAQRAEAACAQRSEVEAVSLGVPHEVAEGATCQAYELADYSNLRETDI
Description: as §3, §4

α1-ARs [3] = test system: α1-ARs; set-up: method as in PMID 27658792; settings: cited from earlier work
α2-ARs [4] = biological target: α2-ARs; set-up: method as in PMID 27658792; settings: [3H]-Clonidine, rat cerebral cortex; ± SEM; cited from earlier work
[5] = antagonist, as worded in abstract and text, read-out: EC50(α1D)

Row | Sα2/α1 (ratio of affinity for α2- and α1-ARs) (α1-ARs [1]) | Ki (α1-ARs [1]) [nM] | Ki (α2-ARs [2]) [nM] | α1A Profile (α1A-ARs) | α1B Profile (α1B-ARs) | α1D Profile (α1D-ARs) | Structure (SMILES) | other results
1 | 46 | 20 ± 2 | 919 ± 25 | ANT | ANT | ANT | O=S(=O)(NCC1CCN(CCOc2ccccc2OCC(F)(F)F)CC1)c1ccc(F)cc1 [Compound 8, 4-Fluoro-N-[(1-{2-[(2,2,2-trifluoroethoxy)phenoxy]ethyl}piperidin-4-yl)methyl]benzenesulfonamide] | IC50 (α1A-ARs): 3.8 nM; IC50 (α1B-ARs): 8.3 nM; IC50 (α1D-ARs; three independent experiments): 1.1 nM; EC50 (α1D-ARs; [5]): 1.1 to 2.7 nM
2 | 9 | 188 ± 3 | 1690 ± 85 | – | – | – | O=S(=O)(N[C@@H]1CCN(CCOc2ccccc2OCC(F)(F)F)C1)c1ccc(F)cc1 [Compound 13, (R)-4-Fluoro-N-(1-{2-[(2,2,2-trifluoroethoxy)phenoxy]ethyl}pyrrolidin-3-yl)benzenesulfonamide] | –
3 | >70 | 134 ± 16 | > 10000 | – | – | – | O=S(=O)(N[C@H]1CCN(CCOc2ccccc2OCC(F)(F)F)C1)c1ccc(F)cc1 [Compound 14, (S)-4-Fluoro-N-(1-{2-[(2,2,2-trifluoroethoxy)phenoxy]ethyl}pyrrolidin-3-yl)benzenesulfonamide] | –
4 | 13 | 117 ± 10 | 1470 ± 80 | – | – | – | O=S(=O)(N[C@H]1CCN(CCOc2ccccc2OCC(F)(F)F)C1)c1cc(Cl)ccc1F [Compound 16, (S)-5-Chloro-2-fluoro-N-(1-{2-[(2,2,2-trifluoroethoxy)phenoxy]ethyl}pyrrolidin-3-yl)benzenesulfonamide] | –

Further lines, the compound ahead of its results:

Row | Structure (SMILES) | Sα2/α1 (ratio of affinity for α2- and α1-ARs) (α1-ARs [1]) | Ki (α1-ARs [1]) [nM] | Ki (α2-ARs [2]) [nM] | α1A Profile (α1A-ARs) | α1B Profile (α1B-ARs) | α1D Profile (α1D-ARs) | other results
5 | COc1ccc(Cl)cc1S(=O)(=O)NCC1CCN(CCOc2ccccc2OCC(F)(F)F)CC1 [Compound 11, 5-Chloro-2-methoxy-N-[(1-{2-[(2,2,2-trifluoroethoxy)phenoxy]ethyl}piperidin-4-yl)methyl]benzenesulfonamide] | 12 | 95 ± 3 | 1090 ± 62 | – | – | – | –
6 | COc1ccc(S(=O)(=O)NCC2CCN(CCOc3ccccc3OCC(F)(F)F)CC2)cc1OC [Compound 12, 3,4-Dimethoxy-N-[(1-{2-[(2,2,2-trifluoroethoxy)phenoxy]ethyl}piperidin-4-yl)methyl]benzenesulfonamide] | 27 | 19 ± 3 | 524 ± 31 | ANT | ANT | ANT | IC50 (α1A-ARs): 15 nM; IC50 (α1B-ARs): 0.02 nM; IC50 (α1D-ARs; three independent experiments): 2.6 nM; EC50 (α1D-ARs; [5]): 1.1 to 2.7 nM
7 | O=S(=O)(N[C@@H]1CCN(CCOc2ccccc2OCC(F)(F)F)C1)c1cc(Cl)ccc1F [Compound 15, (R)-5-Chloro-2-fluoro-N-(1-{2-[(2,2,2-trifluoroethoxy)phenoxy]ethyl}pyrrolidin-3-yl)benzenesulfonamide] | 7 | 171 ± 4 | 1190 ± 74 | – | – | – | –
8 | COc1ccc(S(=O)(=O)N[C@@H]2CCN(CCOc3ccccc3OCC(F)(F)F)C2)cc1OC [Compound 17, (R)-3,4-Dimethoxy-N-(1-{2-[(2,2,2-trifluoroethoxy)phenoxy]ethyl}pyrrolidin-3-yl)benzenesulfonamide] | 4 | 105 ± 7 | 435 ± 21 | – | – | – | –
9 | COc1ccc(S(=O)(=O)N[C@H]2CCN(CCOc3ccccc3OCC(F)(F)F)C2)cc1OC [Compound 18, (S)-3,4-Dimethoxy-N-(1-{2-[(2,2,2-trifluoroethoxy)phenoxy]ethyl}pyrrolidin-3-yl)benzenesulfonamide] | 16 | 70 ± 1 | 1140 ± 42 | – | – | – | –
10 | CC(C)Oc1ccccc1OCCN1CC[C@H](NS(=O)(=O)c2cc(Cl)ccc2F)C1 [II] | – | – | – | – | – | – | Sα2/α1 (ratio of affinity for α2- and α1-ARs) (α1-ARs [3]; Ki α2 / Ki α1): >41; Ki (α1-ARs [3]; [3H]-Prazosin, rat cerebral cortex, ± SEM): 242 ± 16 nM; Ki (α2-ARs [4]): > 10000 nM
11 | CNC[C@H](O)c1cccc(O)c1 [phenylephrine, reference compound] | – | – | – | AGO ^b | AGO | AGO | EC50 (α1D-ARs; agonist mode, three independent experiments, read-out: α1D EC50): 12.1 nM
12 | COc1cc2nc(N3CCN(C(=O)C4CCCO4)CC3)nc(N)c2cc1OC (stereo not shown) [terazosin, reference compound] | – | – | – | ANT | ANT | ANT | IC50 (α1D-ARs; three independent experiments): 0.2 nM
